Results on two molecules are retold here after US20220287995A1, “COMPOSITIONS AND METHODS FOR INHIBITING BACTERIAL VIRULENCE AND FLIM-BASED DEVICE AND METHOD FOR ANTIBIOTIC SUSCEPTIBILITY TESTING” (THE REGENTS OF THE UNIVERSITY OF CALIFORNIA, priority 2019, published 2022).

Experiment [1] concerns surface-attached P. aeruginosa. The experiment can be described thus: Image-based virulence (host killing) assay with amoeba host cells and calcein-AM. It is filed as cell-based, Pseudomonas aeruginosa. The conditions noted are these: for host-killing activity (host killing index): surface-attached wild-type P. aeruginosa in rich (PS:DB) medium, supplemented at 3 hours at 0.2%, assessed after 6 hours of growth, amoeba host cells. As to the method:
P. aeruginosa cells were assayed using an image-based virulence assay as described previously (12, 50). P. aeruginosa strains were cultured in PS:DB, diluted 1:100 into 60×15 mm plastic petri dishes (Corning, Corning, N.Y.), cultured for 4 to 6 hours by shaking at 100 rpm, and harvested. Planktonic cells were assayed by transferring 10 μL of culture from the petri dish to a new petri dish, mixing with an equal volume of D. discoideum that were grown to an OD600 of 0.2-0.5, and immobilizing by placing an agar pad on top of the mixture (FIG. 11C). Agar pads were made using Bacto agar at a concentration of 1%, DB buffer, and 1 μM calcein acetoxymethyl (AM) ester (Molecular Probes, Eugene, Oreg.), and were cut into 1.5×1.5 cm squares (12, 50). Surface-attached cells were assayed by aspirating planktonic cells from the culture, washing with DB buffer to remove planktonic cells, mixing with an equal volume of D. discoideum, and immobilizing by placing an agar pad on top of the mixture (FIG. 11C) (50). The immobilized planktonic or surface-attached P. aeruginosa and D. discoideum were incubated at room temperature for 1 hour and imaged using fluorescence microscopy. The host killing index (12, 50) was computed as the average ratio of calcein-AM fluorescence to cell area in individual amoeba cells for 30 to 200 cells in each experiment.
Fluorescence microscopy to assess calcein-AM fluorescence was performed using a Nikon Eclipse Ti-E microscope (Nikon, Melville, N.Y.) containing Nikon 10× Plan Fluor Ph1 (0.3 NA) and 20×S Plan Fluor Nikon (0.45 NA) objectives, a Sola light engine (Lumencor, Beaverton, Oreg.), an LED-DA/FI/TX filter set (Semrock, Rochester, N.Y.) containing a 409/493/596 dichroic and 474/27 nm and 525/45 nm filters for excitation and emission, respectively, and a Hamamatsu Orca Flash 4.0 V2 camera (Hamamatsu, Bridgewater, N.J.). Images were acquired using Nikon NIS-Elements and analyzed using custom built software written previously (12) in Matlab (Mathworks, Natick, Mass.).
For experiments in which strains cultured in PS:DB were supplemented with individual carbon sources (FIG. 5A-D), pyruvic acid, citric acid, […], glycerol, or glucose was added to cultures at a final concentration of 0.2% at 3 hours following a 1:100 dilution from an overnight culture. Cultures were harvested after 1 additional hour of growth for measurements of fluorescence lifetime and NADH and NAD^+ concentrations. For experiments in which surface-attached strains that were cultured in PS:DB media were treated with antimycin A (FIG. 5E-F), 10 μM antimycin A dissolved in 0.1% ethanol, 0.1% ethanol, alone, or 10 μM antimycin A dissolved in 0.1% ethanol and 0.2% citric acid were added after 3 hours of growth following a 1:100 dilution from an overnight culture. Host killing was measured after an additional 1 to 3 hours of growth (total of 4 to 6 hours of growth).

The test system of experiment [2] is P. aeruginosa. The experiment is described as follows: Fluorescence lifetime imaging microscopy (FLIM) phasor g-values of P. aeruginosa. As to conditions: for enzyme-bound NADH pool: surface-attached P. aeruginosa treated with carbon source; for fluorescence lifetime g-value / change in FLIM g-value: surface-attached; for fluorescence lifetime g-value: modified minimal medium, single carbon source at 0.2%; for change in FLIM g-value: rich (PS:DB) medium, carbon source 0.2% added at 3 hours, harvested after 1 additional hour. It is filed as cell-based, Pseudomonas aeruginosa. As to the method: Fluorescence lifetime measurements were performed using a custom-built multiphoton microscope setup based on an Olympus FV1000 system and an Olympus IX81 microscope (Olympus, Waltham, Mass.) as described previously (68). The FLIM microscope uses an 80 MHz ultrafast Ti:Sapphire Mai Tai laser (Spectra-physics, Santa Clara, Calif.) set at 740 nm for mulitphoton excitation. The setup used a 690-nm SP dichroic-460/80 nm filter pair for separating emission and a PlanApo N Olympus oil immersion 60× (1.42 NA) objective (Olympus, Waltham, Mass.), which is capable of bacterial single-cell resolution imaging. An H7422P-40 photomultiplier tube module (Hamamatsu, Bridgewater, N.J.) and A320 FastFLIM Box (ISS, Champaign, Ill.) were used to measure fluorescence lifetime. Image acquisition was controlled by SimFCS software version 4 (64-bit) (Laboratory for Fluorescence Dynamics, Irvine, Calif.). Planktonic and surface-attached cells were isolated by modifying a protocol described previously (12, 50) (FIG. 11A).
Masks for bacterial cells were created through SimFCS using fluorescence intensity images and image intensity thresholding (FIG. 11B). Fluorescence lifetimes within the masked areas were transformed using
The microscope was calibrated before each session by setting the fluorescence lifetime obtained for 10 μM rhodamine 110 (Sigma, St. Louis, Mo.) to 4.0 ns. The laser power was set to 20% (<3 mW at back aperture of the microscope) using an acousto-optic modulator (AA Opto Electronic, Orsay, France). Sub-cellular fluorescence lifetimes (FIG. 1A) were collected using the 20× digital zoom mode at a rate of 1.7 sec/frame. All other P. aeruginosa measurements were performed using the 6× digital zoom mode using the same frame rate. For all measurements, 40 sequential frames were acquired to generate a single FLIM image.
P. aeruginosa strains were cultured overnight in PS:DB, diluted 1:100 into 35 mm glass-bottom dishes (MatTek Corporation, Ashland, Mass.) containing the same medium, and cultured for 4 to 6 hours (FIGS. 2E-F, 4A, 5A, and 8C). Alternatively, strains were cultured overnight in minimal medium A, diluted 1:100 into modified minimal media A with single carbon sources in culture tubes (FIGS. 6D-E and 7A-B, D) or glass-bottom dishes and cultured to an OD600 of 0.2 (FIG. 2E-F).
Planktonic cells were transferred to a new glass-bottom dish, immobilized using an agar pad, and imaged immediately (FIG. 11A). Agar pads were made using 1% Bacto agar (BD, Franklin Lakes, N.J.) and DB buffer (1, 2) or modified minimal medium A containing no carbon source for strains that were cultured in PS:DB or modified minimal medium, respectively, and were cut into 1.5×1.5 cm squares. Surface-attached cells were isolated by aspirating the supernatant from the dish, washing the dish to remove planktonic cells with DB buffer or modified minimal medium with no carbon source for strains cultured in PS:DB or modified minimal medium, respectively, and placing an agar pad on the dish surface, and were imaged immediately. Imaging was performed at room temperature.
For experiments involving FLIM measurements of the effects of antimycin A (FIG. 7D), P. aeruginosa were grown in culture tubes to saturation in modified minimal medium A containing 0.2% citrate, diluted 1:100 into the same medium in culture tubes, supplemented with 10 μM antimycin A (Sigma, St. Louis, Mo.) with 0.1% ethanol or with 0.1% ethanol, cultured to an OD600 of 0.2, and immediately measured for fluorescence lifetime. Fluorescence lifetimes for pyocyanin and pyoverdine (FIG. 7C) were measured using solutions of 6.2 mM pyocyanin (P0046, Sigma, St. Louis, Mo.) in DMSO and 5 mg/mL pyoverdine (P8124, Sigma, St. Louis, Mo.) in deionized water, respectively. For FIG. 6D, cells with fluorescence intensities below a value of 1.0, as reported by the SimFCS software, were excluded from the analysis. […]

“Also recorded” adds a separate entry of the source.

Regarding `O=C(O)CC(O)(CC(=O)O)C(=O)O` [citrate], the “effect on the earlier virulence induction by antimycin A” value in experiment [1] (co-treatment at 3 hours with 0.2% citrate and 10 μM antimycin A in 0.1% ethanol, surface-attached) was “inhibited”. In addition, the “host-killing activity (host killing index)” value in experiment [1] was “inhibited virulence; also recorded: abolished host-killing activity”. In experiment [2], the “enzyme-bound NADH pool” value is given as “decreased”, the fluorescence lifetime g-value entry was “increasing g-values” and the “change in FLIM g-value” is given as “greatest increases”.

In the case of `OCC(O)CO` [glycerol], in experiment [1], the “host-killing activity (host killing index)” value was “no effect on host-killing activity”. In experiment [2], the “enzyme-bound NADH pool” value was “relatively small impacts”, the fluorescence lifetime g-value entry is reported as “increasing g-values” and the “change in FLIM g-value” is “smallest changes”.
